Measurements: publication PMC12095047, “Transport of phenoxyacetic acid herbicides by PIN-FORMED auxin transporters” (Nature Plants, 2025)
“And” between values parts separate entries of the source, which are not always exact repeats. Equal entries are not always repeated. “Also recorded” adds a separate entry of the source. Where two headings read alike, the source gives them in different places.

Experiments:
Assay type in all cases: biochemical
[1] = target: T1, PIN8 S146A (Arabidopsis thaliana, UniProt Q9LFP6, S146A); details: for Peak current: S146A, individual sensors
T1 construct: made in house
T1 sequence (Q9LFP6 whole entry S146A): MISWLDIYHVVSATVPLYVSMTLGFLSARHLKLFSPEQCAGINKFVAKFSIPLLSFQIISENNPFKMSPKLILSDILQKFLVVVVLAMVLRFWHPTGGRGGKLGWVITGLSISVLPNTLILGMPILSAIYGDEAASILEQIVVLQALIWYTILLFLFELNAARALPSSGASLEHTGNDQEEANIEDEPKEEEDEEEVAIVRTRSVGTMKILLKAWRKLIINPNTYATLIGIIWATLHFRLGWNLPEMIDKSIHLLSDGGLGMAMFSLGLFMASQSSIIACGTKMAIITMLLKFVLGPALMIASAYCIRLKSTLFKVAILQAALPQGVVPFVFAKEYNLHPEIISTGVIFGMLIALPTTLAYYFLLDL
Description: (§1) SSM, using a SURFE2R N1 from Nanion Technologies, was conducted as described. In brief, soy polar lipid mix (38% phosphatidyl choline, 30% phosphatidyl ethanolamine, 18% phosphatidyl inositol, 7% phosphatidic acid and 7% other soy lipids) and 1-palmitoyl-2-oleoyl-sn-glycero-3-phosphocholin were purchased from Avanti. Liposomes were prepared in Ringer solution without Ca^2+ (115 mM NaCl, 2.5 mM KCl, 1 mM NaHCO3, 10 mM HEPES pH7.4, 1 mM MgCl2) and homogenized using a Lipsofast (Avestin) with a […]. Triton X-100 was added to the liposomes to a final concentration of 1% (v/v). Protein was added to liposomes to a calculated lipid-to-protein ratio (LPR) of 10 unless stated otherwise. The detergent was removed using 400 mg ml^−1 Bio Beads (BioRad) overnight at 4 °C in a rotary shaker. Proteoliposomes were frozen in liquid nitrogen and kept at −80 °C until use. Proteoliposomes were diluted 1:5 in Ringer solution without Ca^2+, sonicated five times and then applied to the sensors by centrifugation (30 min, 3,000 g, 4 °C). Non-activating buffer was Ringer solution without Ca^2+ as described unless specified otherwise, and activating buffer contained the substrate of interest. In most instances we used a single-solution exchange experiment. In this case proteoliposomes, immobilized on the supported membrane, are kept in non-activating buffer as specified. At the beginning of the experiment the non-activating buffer is replaced with fresh identical non-activating buffer, and after 1 s, activating buffer (same buffer containing substrate) is added. After another second, the buffer is replaced with non-activating buffer again. Current response is recorded throughout the entire 3 s. For competition or inhibition, the respective compound was present in non-activating and activating solutions. Each experiment was performed on at least two individual sensors. On each sensor each measurement consists of three technical replicates where the mean is calculated. KD values were determined as described previously. Briefly, the binding current induced by 100 µM NPA was recorded in the presence of different concentrations of the substrate under investigation ranging between 0 µM and 1,000 µM present in the activating solution and the non-activating solution (Extended Data Fig. 5b). […] The maximum peak current was then plotted as a function of the concentration of the substrate under investigation and plotted against the degree of inhibition and fitted with a one-site binding model using GraphPad Prism V10.4.1 The half maximal concentration corresponds to the KD of the substrate under investigation.
(§2) The protocol for expression and purification of AtPIN8 protein (Uniprot: Q9LFP6) in lauryl maltose neopentyl glycol was described previously. All point mutants were generated using Q5 Site-Directed mutagenesis kit (New England Biolabs). The C-flat Holey Carbon grids (CF-1.2/1.3, Cu-300 mesh) were glow-discharged for 45 s at 15 mA in a GloQube Plus (Quorum). […] After 1 h of incubation on ice, the sample was centrifuged at 16,000 g for 15 min before blotting to remove precipitation. A drop of 4 µl of each sample was applied to the glow-discharged grids, blotted with a Vitrobot Mark IV (ThermoFisher Scientific) using the following settings (temperature 4 °C, 100% humidity, blot time of 4 s, blot force −1) and vitrified in liquid ethane.

[2] = target: T2, PIN8 N223A (Arabidopsis thaliana, UniProt Q9LFP6, N223A); details: N223A
T2 construct: made in house
T2 sequence (Q9LFP6 whole entry N223A): as the sequence (Q9LFP6 whole entry S146A) above, with A146S, N223A counted along it
Description: as §1, §2

[3] = target: T3, PIN8 Y150A (Arabidopsis thaliana, UniProt Q9LFP6, Y150A); details: for Peak current: Y150A, individual sensors
T3 construct: made in house
T3 sequence (Q9LFP6 whole entry Y150A): as the sequence (Q9LFP6 whole entry S146A) above, with A146S, Y150A counted along it
Description: as §1, §2

[4] = target: T4, PIN8 S55A/S146A (Arabidopsis thaliana, UniProt Q9LFP6, S146A/S55A); details: Michaelis–Menten fit
T4 construct: made in house
T4 sequence (Q9LFP6 whole entry S55A/S146A): as the sequence (Q9LFP6 whole entry S146A) above, with S55A counted along it
Description: as §1, §2

[5] = target: T5, PIN8 S266A (Arabidopsis thaliana, UniProt Q9LFP6, S266A); details: PIN8 S266A, Michaelis–Menten fit
T5 construct: made in house
T5 sequence (Q9LFP6 whole entry S266A): as the sequence (Q9LFP6 whole entry S146A) above, with A146S, S266A counted along it
Description: as §1, §2

[6] = target: T6, PIN8 I51Y (Arabidopsis thaliana, UniProt Q9LFP6, I51Y); details: Michaelis–Menten fit
T6 construct: made in house
T6 sequence (Q9LFP6 whole entry I51Y): as the sequence (Q9LFP6 whole entry S146A) above, with I51Y, A146S counted along it
Description: as §1, §2

[7] = target: T7, PIN8 Y150F (Arabidopsis thaliana, UniProt Q9LFP6, Y150F); details: PIN8 Y150F, Michaelis–Menten fit
T7 construct: made in house
T7 sequence (Q9LFP6 whole entry Y150F): as the sequence (Q9LFP6 whole entry S146A) above, with A146S, Y150F counted along it
Description: as §1, §2

[8] = target: T8, PIN8 S55A (Arabidopsis thaliana, UniProt Q9LFP6, S55A); details: for Peak current: S55A, individual sensors
T8 construct: made in house
T8 sequence (Q9LFP6 whole entry S55A): as the sequence (Q9LFP6 whole entry S146A) above, with S55A, A146S counted along it
Description: as §1, §2

[9] = target: T9, PIN8 N117A (Arabidopsis thaliana, UniProt Q9LFP6, N117A); assay: SSM electrophysiology peak current, PIN8 N117A proteoliposomes; details: for Relative Peak Current of WT (%): Substrate 2,4-D, replicates
T9 construct: made in house
T9 sequence (Q9LFP6 whole entry N117A): as the sequence (Q9LFP6 whole entry S146A) above, with N117A, A146S counted along it
Description: as §1, §2

[10] = target: T10, wild-type PIN8 proteoliposomes (Arabidopsis thaliana, UniProt Q9LFP6); assay: SSM electrophysiology, peak width (FWHM) of current response at LPR10 and LPR50; details: LPR10 versus LPR50
T10 construct: made in house
T10 sequence (Q9LFP6 1-367): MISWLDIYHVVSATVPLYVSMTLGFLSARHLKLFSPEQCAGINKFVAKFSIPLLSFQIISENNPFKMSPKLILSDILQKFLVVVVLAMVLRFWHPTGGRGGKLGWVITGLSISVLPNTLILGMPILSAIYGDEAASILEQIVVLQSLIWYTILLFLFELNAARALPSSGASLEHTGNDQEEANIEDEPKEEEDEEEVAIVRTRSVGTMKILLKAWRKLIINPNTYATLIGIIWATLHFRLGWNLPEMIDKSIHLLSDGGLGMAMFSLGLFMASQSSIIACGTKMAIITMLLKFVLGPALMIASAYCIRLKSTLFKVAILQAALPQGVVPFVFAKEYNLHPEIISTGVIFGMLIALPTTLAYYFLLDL
Description: as §1

[11] = read-out: EC50 of peak current response

With O=C(O)COc1ccc(Cl)cc1Cl [2,4-D, 2,4-dichlorophenoxyacetic acid] the Imax ([1]; PIN8 S146A, Michaelis–Menten fit) was 8 ± 0.9 nA, the EC50 ([1]; PIN8 S146A, Michaelis–Menten fit, read-out: EC50 of peak current response) was 164 ± 67 µM and the Peak current ([1]; 5 µM substrate) was 0.446 nA and 0.486 nA and 0.471 nA and 0.573 nA. For the same compound, the Peak current ([1]; 20 µM substrate) was 1.337 nA and 0.845 nA and 1.226 nA and 1.49 nA, the Peak current ([1]; 50 µM substrate) was 2.387 nA and 1.739 nA and 2.167 nA and 2.694 nA and the Peak current ([1]; 100 µM substrate) was 3.422 nA and 2.581 nA and 3.052 nA and 3.828 nA. For the same compound, the Peak current ([1]; 500 µM substrate) was 6.088 nA and 4.842 nA and 5.334 nA and 6.787 nA, the Peak current ([1]; 1000 µM substrate) was 7.15 nA and 6.069 nA and 6.109 nA and 7.864 nA and the Peak current ([1]; 2000 µM substrate) was 8.119 nA and 7.96 nA and 6.88 nA and 9.033 nA. The “fold-change difference to the respective EC50 of wildtype PIN8” value [2] was “completely abolishes binding”, the Imax ([3]; PIN8 Y150A, Michaelis–Menten fit) was 5 ± 1 nA and the EC50 ([3]; PIN8 Y150A, Michaelis–Menten fit, read-out: EC50 of peak current response) was 684 ± 256 µM. For the same compound, the Peak current ([3]; 5 µM substrate) was 0.1509 nA and 0.05154 nA and 0.05368 nA and 0.1258 nA, the Peak current ([3]; 20 µM substrate) was 0.08307 nA and 0.2336 nA and 0.2155 nA and 0.2901 nA and the Peak current ([3]; 50 µM substrate) was 0.3395 nA and 0.5519 nA and 0.4679 nA and 0.5665 nA. For the same compound, the Peak current ([3]; 100 µM substrate) was 0.6832 nA and 0.8682 nA and 0.7895 nA and 0.907 nA, the Peak current ([3]; 500 µM substrate) was 2.171 nA and 2.337 nA and 2.071 nA and 2.343 nA and the Peak current ([3]; 1000 µM substrate) was 3.151 nA and 3.173 nA and 2.762 nA and 3.101 nA. For the same compound, the Peak current ([3]; 2000 µM substrate) was 4.437 nA and 4.148 nA and 3.583 nA and 4.038 nA, the Imax [4] was 9 ± 2 nA and the EC50 [4, 11] was 38 ± 6 µM. For the same compound, the Imax [5] was 12 ± 0.7 nA, the EC50 [5, 11] was 774 ± 70 µM and the Imax [6] was 3 ± 0.8 nA. For the same compound, the EC50 [6, 11] was 641 ± 77 µM, the Imax [7] was 8 ± 2 nA and the EC50 [7, 11] was 816 ± 275 µM. The Imax ([8]; PIN8 S55A, Michaelis–Menten fit) was 6 ± 0.6 nA, the EC50 ([8]; PIN8 S55A, Michaelis–Menten fit, read-out: EC50 of peak current response) was 95 ± 36 µM and the Peak current ([8]; 5 µM substrate) was 0.5771 nA and 0.4543 nA and 0.3145 nA and 0.4609 nA. For the same compound, the Peak current ([8]; 20 µM substrate) was 1.612 nA and 1.263 nA and 1.114 nA and 1.2922 nA, the Peak current ([8]; 50 µM substrate) was 2.6274 nA and 2.193 nA and 2.012 nA and 0.000174 nA and the Peak current ([8]; 100 µM substrate) was 3.62 nA and 3.055 nA and 2.8112 nA and 3.289 nA. The Peak current ([8]; 500 µM substrate) was 5.907 nA and 5.083 nA and 4.589 nA and 5.296 nA, the Peak current ([8]; 1000 µM substrate) was 6.235 nA and 5.542 nA and 4.855 nA and 5.533 nA and the Peak current ([8]; 2000 µM substrate) was 6.017 nA and 5.654 nA and 4.774 nA and 5.542 nA. The “current response / function of PIN8 N117A” value ([9]; N117A mutation) was “abolishes the current response; also recorded: abolishes function”, the “Relative Peak Current of WT (%)” value ([9]; 2mM) was 22.8804% and 23.9685% and 24.9449% and 20.0988% and the “Relative Peak Current of WT (%)” value [9] was 9.311% and 12.1121% and 13.3294% and 14.1031%. For the same compound, the “peak width of SSM-based current response as a function of lipid-to-protein ratio (LPR)” value [10] was “vary with lipid-to-protein ratio (LPR)”.
